# From patent publication US9096492B2, “Hydrated N-fullerene amino acids, method for producing the latter, and pharmaceutical compositions on the basis thereof” (priority 2011, dated 2015)
# Values joined by “and” are separate entries in the source; they are usually repeats but may differ in a detail not shown here. Identical values can stand only once. Like-named read-outs stand apart in the source and are kept apart here.
# How the values were obtained:
# [1] = test system: ascites Ehrlich carcinoma cells; test: Apoptosis in ascites Ehrlich carcinoma cells of treated mice (cytofluorimetric analysis); format: in vivo
# solid Ehrlich carcinoma = test: Solid Ehrlich carcinoma in white mice, tumor size dynamics; settings: Cisplatin 5 mg/kg once
# [2] = test system: Ehrlich ascites carcinoma; test: Ehrlich ascites carcinoma in white mice, body weight dynamics
# [3] = test system: A/Swine/1976/31 (H1N1) influenza virus; format: in vivo, mice; settings: Tamiflu 20 mg/kg; for Infectious virus titer (log10EID50/20 mg tissue): lung tissue
# [4] = test system: HIV, HSV, and influenza virus; test: Antiviral activity of the Example 3 compound; settings: against HIV
# Excerpt: The antiviral activity of the compound was studied against HIV, HSV, and influenza virus; its antitumor activity was also studied. The compound has high antitumor and antiviral activities against all of the aforementioned viruses. Preferred example embodiments of the invention are given below.
# [5] = Antitumor activity of the Example 3 compound
# [6] = Solubility of the isolated product
# [7] = ascites cells having large sizes and granularity (tumor cells)
# [8] = ascites cells of moderate size and granularity
compound,measurement,setting,value
"N.N.[Cl][Pt][Cl] [Cisplatin, reference compound]",AnV^+ 7AAD^+ (late apoptosis),[1]; [7],72.8 ± 10.9%
same,AnV^+ 7AAD^− (early apoptosis),[1]; [7],0.3 ± 0.3%
same,AnV^−7AAD^+ (necrosis),[1]; [7],26.6% and 26.6 ± 11.1%
same,AnV^−7AAD^− (living cells),[1]; [7],0.4 ± 0.2%
same,Percent amount of cells with the phenotype AnV^+ 7AAD^+ (late apoptosis),[1]; [8],3.5 ± 2.4%
same,Percent amount of cells with the phenotype AnV^+ 7AAD^− early apoptosis,[1]; [8],41.1 ± 11.3%
same,Percent amount of cells with the phenotype AnV^−7AAD^+ (necrosis),[1]; [8],0.1 ± 0.2%
same,Percent amount of cells with the phenotype AnV^−7AAD^− (living cells),[1]; [8],55.2 ± 11.0%
same,Tumor size (mm^3),solid Ehrlich carcinoma; day 8 post transplantation,56.5 mm^3
same,Tumor size (mm^3),solid Ehrlich carcinoma; day 13 post transplantation,249.2 mm^3
same,Tumor size (mm^3),solid Ehrlich carcinoma; day 17 post transplantation,464.3 mm^3
same,Tumor size (mm^3),solid Ehrlich carcinoma; day 21 post transplantation,1071.9 mm^3
same,Tumor size (mm^3),solid Ehrlich carcinoma; day 24 post transplantation,1743.3 mm^3
same,Tumor size (mm^3),solid Ehrlich carcinoma; day 28 post transplantation,1269.4 mm^3
same,Animal body weight,[2]; day 1 post tumor transplantation,19.1 ± 5 g
same,Animal body weight,[2]; day 3 post tumor transplantation,19.3 ± 2.7 g
same,Animal body weight,[2]; day 5 post tumor transplantation,19.4 ± 2.5 g
same,Animal body weight,[2]; day 8 post tumor transplantation,19.8 ± 2.2 g
same,Animal body weight,[2]; day 10 post tumor transplantation,20.7 ± 2.4 g
same,Animal body weight,[2]; day 13 post tumor transplantation,21.4 ± 1.5 g
same,Animal body weight,[2]; day 15 post tumor transplantation,21.8 ± 1.6 g
"CCOC(=O)C1=C[C@@H](OC(CC)CC)[C@H](NC(C)=O)[C@@H](N)C1.O=P(O)(O)O [Tamiflu, ethyl(3R,4R,5S)-4-acetamido-5-amino-3-(1-ethylpropoxy)-1-cyclohexene-1-carboxylate phosphate, reference compound]",Average lifetime (LD),"[3]; Summary dose, n=26",12.2 days
same,Increase in LD,"[3]; Summary dose, n=26",3.6 days
same,Index of protection,"[3]; Summary dose, n=26",62.8
same,"Mortality rate, %","[3]; Summary dose, n=26",26.9%
same,Number of survivors,"[3]; Summary dose, n=26",19
same,Size of chronic post-influenza pneumonia sites (% of the total surface area of the lungs),"[3]; the lower of the virus doses used, day 15",20 ± 5%
same,Average lifetime (LD),"[3]; virus 1 LD50, n=13",13.5 days
same,Increase in LD,"[3]; virus 1 LD50, n=13",2.9 days
same,Index of protection,"[3]; virus 1 LD50, n=13",71.2
same,"Mortality rate, %","[3]; virus 1 LD50, n=13",15.4%
same,Number of survivors,"[3]; virus 1 LD50, n=13",11
same,Average lifetime (LD),"[3]; virus 10 LD50, n=13",11.0 days
same,Increase in LD,"[3]; virus 10 LD50, n=13",4.4 days
same,Index of protection,"[3]; virus 10 LD50, n=13",58.6
same,"Mortality rate, %","[3]; virus 10 LD50, n=13",38.5%
same,Number of survivors,"[3]; virus 10 LD50, n=13",8
same,Infectious virus titer (log10EID50/20 mg tissue),[3]; virus dose 1 LD50,3.1 ± 0.1 log10EID50/20 mg tissue
same,Infectious virus titer (log10EID50/20 mg tissue),[3]; virus dose 5 LD50,3.8 ± 0.3 log10EID50/20 mg tissue
N-fullerene tris(8-aminooctanoic acid hydrate) [Example 3],antiviral activity,[4],high
same,antitumor activity,[5],high
N-fullerene tris-ω-aminoenanthic acid) hydrate [Example 2],solubility in CH3CN:H2O (1:10),[6],soluble
same,solubility in DMF-H2O (1:100),[6],soluble
same,solubility in water,[6],soluble
